{
  "source": "patent US7763615B2",
  "about": "“Ecteinascidin analogs for use as antitumour agents” (priority 2001, dated 2010)",
  "key": {"[1]": {"system": "L8, normal rat skeletal muscle cells", "settings": "24 h", "procedure": "In order to assess the cytotoxicity of the drugs to normal cells, we used 96 well plates plated at a density of 5000 cells per well (except for the FDC-P1 which were plated at 12,000 cells per well) with normal cell lines (ATCC, Table 1) maintained as per the directions of the ATCC: AML-12, normal mouse liver cells; NRK-52E, normal rat kidney cells; L8, normal rat skeletal muscle cells; FDC-P1, normal mouse myelogeous stem cells; and H9c2 (2-1), normal rat cardiac muscle cells. The cells in each plate were permitted to settle overnight before adding the test drug.\nTo each well (100 μl medium) 10 μl of drug in media was added at varying concentrations (1×10-10-0.01 mg/ml final concentration) and further incubated overnight at 37° C. with 5% CO2. After 24 h the following assays were performed. All experiments were repeated at least 3 times and were assayed in duplicate.\nMTS assay (CellTiter 96 aqueous) was performed according to the manufacturer's (Promega) directions (for all cell types). Cell viability (mitochondrial activity) is determined via enzymatic conversion of the formazan substrate."}, "MEL-28": {"system": "MEL-28", "assay": "cells", "format": "cell-based", "settings": "Homo sapiens, SK-MEL-28, 48 h", "how_it_was_run": "(§1)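 SRB colorimetric read-out (490 nm) after TCA fixation gave GI, TGI and LC values from triplicate wells. Before that, cells (5×10^3/well, RPMI 1640 with 10% FBS, 37 °C, 5% CO2) grew drug-free 18 h and were then continuously exposed 48 h to 10–10^−8 μg/ml compound.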"}, "HT29": {"system": "HT29", "assay": "cells", "format": "cell-based", "settings": "Homo sapiens, HT-29, 48 h", "how_it_was_run": "as §1"}, "A549": {"system": "A549", "assay": "cells", "format": "cell-based", "settings": "Homo sapiens, A549, 48 h", "how_it_was_run": "as §1"}, "IGROV": {"system": "IGROV", "assay": "cells", "format": "cell-based", "settings": "Homo sapiens, 48 h", "how_it_was_run": "as §1"}, "IGROV-ET": {"system": "IGROV-ET", "assay": "cells", "format": "cell-based", "settings": "Homo sapiens, 48 h", "how_it_was_run": "as §1"}, "PANC-1": {"system": "PANC-1", "assay": "cells", "format": "cell-based", "settings": "Homo sapiens, PANC-1, 48 h", "how_it_was_run": "as §1"}, "SK-BR3": {"system": "SK-BR3", "assay": "cells", "format": "cell-based", "settings": "Homo sapiens, SK-BR-3, 48 h", "how_it_was_run": "as §1"}, "DU145": {"system": "DU145", "assay": "cells", "format": "cell-based", "settings": "Homo sapiens, DU-145, 48 h", "how_it_was_run": "as §1"}, "LOVO-DOX": {"system": "LOVO-DOX", "assay": "cells", "format": "cell-based", "settings": "Homo sapiens, 48 h", "how_it_was_run": "as §1"}, "K562": {"system": "K562", "assay": "cells", "format": "cell-based", "settings": "Homo sapiens, K562, 48 h", "how_it_was_run": "as §1"}, "LNCAP": {"system": "LNCAP", "assay": "cells", "format": "cell-based", "settings": "Homo sapiens, LNCaP, 48 h", "how_it_was_run": "as §1"}, "LOVO": {"system": "LOVO", "assay": "cells", "format": "cell-based", "settings": "Homo sapiens, LoVo, 48 h", "how_it_was_run": "as §1"}, "CYP3A4": {"molecular_target": "CYP3A4 (Homo sapiens, UniProt P08684)", "sequence (P08684 whole entry)": "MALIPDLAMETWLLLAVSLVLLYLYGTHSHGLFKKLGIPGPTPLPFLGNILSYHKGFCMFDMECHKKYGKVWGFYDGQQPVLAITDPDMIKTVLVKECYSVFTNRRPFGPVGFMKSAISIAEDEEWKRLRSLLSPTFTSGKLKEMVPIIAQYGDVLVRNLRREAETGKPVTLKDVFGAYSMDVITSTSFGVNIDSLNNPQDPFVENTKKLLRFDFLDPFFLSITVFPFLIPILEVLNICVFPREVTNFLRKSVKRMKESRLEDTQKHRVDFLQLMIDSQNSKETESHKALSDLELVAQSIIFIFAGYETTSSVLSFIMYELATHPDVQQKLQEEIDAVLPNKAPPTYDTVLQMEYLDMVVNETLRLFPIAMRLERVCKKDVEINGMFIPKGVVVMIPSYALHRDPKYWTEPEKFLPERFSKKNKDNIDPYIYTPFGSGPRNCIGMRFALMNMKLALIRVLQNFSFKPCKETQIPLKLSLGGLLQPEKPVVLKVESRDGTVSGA", "assay": "in vitro", "settings": "CYP3A4 (% inhibition)"}, "H-MEC-1": {"system": "H-MEC-1", "assay": "Inhibition of cells growth by colorimetric assay (SRB), H-MEC-1", "format": "cell-based", "settings": "Homo sapiens, HMEC-1, 48 h", "how_it_was_run": "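SRB colorimetric growth assay: 5×10^3 cells/well, 18 h attachment, 48 h continuous compound exposure at 10–10^−8 μg/ml in DMSO/EtOH/PBS. TCA fixation, SRB stain, OD 490 nm; triplicate wells, GI, TGI and LC derived.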"}, "[2]": {"system": "FDC-P1, normal mouse myelogeous stem cells", "settings": "24 h"}, "physchem [3]": {"assay": "physchem", "settings": "pH 7.4, aqueous buffer, Solubility Dulbecco's PBS pH 7.4"}, "[4]": {"system": "AML-12, normal mouse liver cells", "settings": "24 h"}, "[5]": {"system": "NRK-52E, normal rat kidney cells", "settings": "24 h"}, "(HEPG2)": {"system": "(HEPG2)", "settings": "human, 24 h, 30 μM"}, "SK-OV3": {"system": "SK-OV3", "assay": "Inhibition of cells growth by colorimetric assay (SRB), SK-OV3", "format": "cell-based", "how_it_was_run": "as §1"}, "physchem [6]": {"assay": "physchem", "settings": "pH 7.4, log D n-Octanol-Dulbecco's PBS pH 7.4"}, "[7]": {"settings": "s9, 60 min, 1 μM"}, "[8]": {"system": "H9c2 (2-1), normal rat cardiac muscle cells", "settings": "24 h"}, "[9]": {"settings": "IGROV-ET, 48 hours exposure, SRB"}, "[10]": {"settings": "LOVO-DOX, 48 hours exposure, SRB"}, "[11]": {"settings": "H-MEC-1, 48 hours exposure, SRB"}},
  "data": [
    {"smiles": "COc1c(C)cc2c(c1O)[C@@H]1C3[C@@H]4SC[C@]5(NCCc6c5[nH]c5ccc(F)cc65)C(=O)COC[C@@H](c5c6c(c(C)c(OC(C)=O)c54)OCO6)N3[C@@H](O)[C@H](C2)N1C", "note": "(stereo partly shown) [Compound 35]", "values": [
      {"measurement": "Skeletal", "setting": "[1]", "result": "3.07E−08"},
      {"measurement": "GI50", "setting": "MEL-28; MEL-28, 48 hours exposure, SRB", "result": 2.78, "unit": "nM"},
      {"measurement": "IC (TGI)", "setting": "MEL-28; MEL-28, 48 hours exposure, SRB", "result": 7.16, "unit": "nM"},
      {"measurement": "CC50", "setting": "MEL-28; read-out: LC50, MEL-28, 48 hours exposure, SRB", "result": 47, "unit": "nM"},
      {"measurement": "GI50", "setting": "HT29; HT29, 48 hours exposure, SRB", "result": 4.19, "unit": "nM"},
      {"measurement": "IC (TGI)", "setting": "HT29; HT29, 48 hours exposure, SRB", "result": 13.2, "unit": "nM"},
      {"measurement": "CC50", "setting": "HT29; read-out: LC50, HT29, 48 hours exposure, SRB", "result": 12900, "unit": "nM"},
      {"measurement": "GI50", "setting": "A549; A549, 48 hours exposure, SRB, read-out: GI50", "result": 3.03, "unit": "nM"},
      {"measurement": "IC (TGI)", "setting": "A549; A549, 48 hours exposure, SRB, read-out: TGI", "result": 7.65, "unit": "nM"},
      {"measurement": "CC50", "setting": "A549; read-out: LC50, A549, 48 hours exposure, SRB", "result": 4090, "unit": "nM"},
      {"measurement": "GI50", "setting": "IGROV; 48 hours exposure, SRB", "result": 3.45, "unit": "nM"},
      {"measurement": "IC (TGI)", "setting": "IGROV; 48 hours exposure, SRB", "result": 7.72, "unit": "nM"},
      {"measurement": "CC50", "setting": "IGROV; read-out: LC50, IGROV, 48 hours exposure, SRB", "result": 3380, "unit": "nM"},
      {"measurement": "GI50", "setting": "IGROV-ET; [9]", "result": 5.53, "unit": "nM"},
      {"measurement": "IC (TGI)", "setting": "IGROV-ET; [9]", "result": 23.5, "unit": "nM"},
      {"measurement": "CC50", "setting": "IGROV-ET; read-out: LC50, IGROV-ET, 48 hours exposure, SRB", "result": 12900, "unit": "nM"},
      {"measurement": "GI50", "setting": "PANC-1; PANC-1, 48 hours exposure, SRB", "result": 4.52, "unit": "nM"},
      {"measurement": "IC (TGI)", "setting": "PANC-1; PANC-1, 48 hours exposure, SRB", "result": 42.1, "unit": "nM"},
      {"measurement": "CC50", "setting": "PANC-1; read-out: LC50, PANC-1, 48 hours exposure, SRB", "result": 12900, "unit": "nM"},
      {"measurement": "GI50", "setting": "SK-BR3; SK-BR3, 48 hours exposure, SRB", "result": 2.21, "unit": "nM"},
      {"measurement": "IC (TGI)", "setting": "SK-BR3; SK-BR3, 48 hours exposure, SRB", "result": 6.55, "unit": "nM"},
      {"measurement": "CC50", "setting": "SK-BR3; read-out: LC50, SK-BR3, 48 hours exposure, SRB", "result": 1090, "unit": "nM"},
      {"measurement": "GI50", "setting": "DU145; DU145, 48 hours exposure, SRB", "result": 3.83, "unit": "nM"},
      {"measurement": "IC (TGI)", "setting": "DU145; DU145, 48 hours exposure, SRB", "result": 12, "unit": "nM"},
      {"measurement": "CC50", "setting": "DU145; read-out: LC50, DU145, 48 hours exposure, SRB", "result": 12900, "unit": "nM"},
      {"measurement": "GI50", "setting": "LOVO-DOX; [10]", "result": 26.8, "unit": "nM"},
      {"measurement": "IC (TGI)", "setting": "LOVO-DOX; [10]", "result": 124, "unit": "nM"},
      {"measurement": "CC50", "setting": "LOVO-DOX; read-out: LC50, LOVO-DOX, 48 hours exposure, SRB", "result": 12900, "unit": "nM"},
      {"measurement": "GI50", "setting": "K562; K562, 48 hours exposure, SRB", "result": 1.14, "unit": "nM"},
      {"measurement": "IC (TGI)", "setting": "K562; K562, 48 hours exposure, SRB", "result": 2.67, "unit": "nM"},
      {"measurement": "CC50", "setting": "K562; read-out: LC50, K562, 48 hours exposure, SRB", "result": 10.2, "unit": "nM"},
      {"measurement": "GI50", "setting": "LNCAP; 48 hours exposure, SRB", "result": 0.816, "unit": "nM"},
      {"measurement": "IC (TGI)", "setting": "LNCAP; 48 hours exposure, SRB", "result": 2.5, "unit": "nM"},
      {"measurement": "CC50", "setting": "LNCAP; read-out: LC50, LNCAP, 48 hours exposure, SRB", "result": 7.48, "unit": "nM"},
      {"measurement": "GI50", "setting": "LOVO; 48 hours exposure, SRB", "result": 2.26, "unit": "nM"},
      {"measurement": "IC (TGI)", "setting": "LOVO; 48 hours exposure, SRB", "result": 5.68, "unit": "nM"},
      {"measurement": "CC50", "setting": "LOVO; read-out: LC50, LOVO, 48 hours exposure, SRB", "result": 12.9, "unit": "nM"},
      {"measurement": "inhibition at 30 min, 10 µM", "setting": "CYP3A4", "result": 24, "unit": "%"},
      {"measurement": "GI50", "setting": "H-MEC-1; [11]", "result": 2.6, "unit": "nM"},
      {"measurement": "IC (TGI)", "setting": "H-MEC-1; [11]", "result": 30.4, "unit": "nM"},
      {"measurement": "CC50", "setting": "H-MEC-1; read-out: LC50, H-MEC-1, 48 hours exposure, SRB", "result": 12900, "unit": "nM"},
      {"measurement": "Myelo", "setting": "[2]", "result": "4.08E−08"},
      {"measurement": "solubility", "setting": "physchem [3]", "result": "< 1", "unit": "µM"},
      {"measurement": "Liver", "setting": "[4]", "result": "4.88E−08"},
      {"measurement": "Kidney", "setting": "[5]", "result": "3.42E−08"},
      {"measurement": "Cell Viability (% inhibition)", "setting": "(HEPG2)", "result": 23, "unit": "% inhibition"},
      {"measurement": "GI50", "setting": "SK-OV3; Homo sapiens, SK-OV-3, 48 h, SK-OV3, 48 hours exposure, SRB", "result": 4.37, "unit": "nM"},
      {"measurement": "CC50", "setting": "SK-OV3; Homo sapiens, SK-OV-3, 48 h, read-out: LC50, SK-OV3, 48 hours exposure, SRB", "result": 12900, "unit": "nM"},
      {"measurement": "TGI", "setting": "SK-OV3; SK-OV3, 48 hours exposure, SRB", "result": "1.46E−08", "unit": "Molar"},
      {"measurement": "logD at 60 min", "setting": "physchem [6]", "result": "> 5"},
      {"measurement": "Human Liver S9 Metabolic Stability (% remaining)", "setting": "[7]", "result": 4, "unit": "% remaining"},
      {"measurement": "Heart", "setting": "[8]", "result": "1.93E−08"}
    ]}
  ]
}
